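How tested: cells in 96-well plates exposed to compound for 48 hours at five concentrations. At the TGI there is no net growth.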
Columns and labels:
Assay in all cases: NCI anticancer screen, dose series, 48 h
NCI-H522 lung = tested on: NCI-H522 lung
U251 CNS = tested on: U251 CNS
HOP-92 NSCLC = tested on: HOP-92 NSCLC
TK-10 renal = tested on: TK-10 renal
A498 renal = tested on: A498 renal
SW-620 colon = tested on: SW-620 colon
MDA-MB-435 = tested on: MDA-MB-435
SF-268 CNS = tested on: SF-268 CNS
SK-MEL-28 melanoma = tested on: SK-MEL-28 melanoma
SK-MEL-2 melanoma = tested on: SK-MEL-2 melanoma
LOX IMVI melanoma = tested on: LOX IMVI melanoma
UACC-62 melanoma = tested on: UACC-62 melanoma
A549 NSCLC = tested on: A549 NSCLC
IGROV1 ovarian = tested on: IGROV1 ovarian
HCT-116 colon = tested on: HCT-116 colon
NCI-H226 lung = tested on: NCI-H226 lung
SN12C renal = tested on: SN12C renal
MOLT-4 leukemia = tested on: MOLT-4 leukemia
HCT-15 colon = tested on: HCT-15 colon
SR leukemia = tested on: SR leukemia
OVCAR-8 ovarian = tested on: OVCAR-8 ovarian
SNB-75 CNS = tested on: SNB-75 CNS
SK-MEL-5 melanoma = tested on: SK-MEL-5 melanoma
PC-3 prostate = tested on: PC-3 prostate
K-562 leukemia = tested on: K-562 leukemia
DU-145 prostate = tested on: DU-145 prostate
MDA-MB-231 breast = tested on: MDA-MB-231 breast
M14 melanoma = tested on: M14 melanoma
MCF7 breast = tested on: MCF7 breast
ACHN renal = tested on: ACHN renal
EKVX NSCLC = tested on: EKVX NSCLC
OVCAR-5 ovarian = tested on: OVCAR-5 ovarian
MDA-N = tested on: MDA-N
COLO 205 colon = tested on: COLO 205 colon
SF-295 CNS = tested on: SF-295 CNS
HT29 colon = tested on: HT29 colon
HOP-62 NSCLC = tested on: HOP-62 NSCLC
786-0 renal = tested on: 786-0 renal
HS 578T breast = tested on: HS 578T breast
NCI/ADR-RES ovarian = tested on: NCI/ADR-RES ovarian
OVCAR-3 ovarian = tested on: OVCAR-3 ovarian
OVCAR-4 ovarian = tested on: OVCAR-4 ovarian
KM12 colon = tested on: KM12 colon
NCI-H23 lung = tested on: NCI-H23 lung
RPMI-8226 leukemia = tested on: RPMI-8226 leukemia
UO-31 renal = tested on: UO-31 renal
MALME-3M melanoma = tested on: MALME-3M melanoma
SNB-19 CNS = tested on: SNB-19 CNS
SK-OV-3 ovarian = tested on: SK-OV-3 ovarian
CAKI-1 renal = tested on: CAKI-1 renal
SF-539 CNS = tested on: SF-539 CNS
RXF 393 renal = tested on: RXF 393 renal

CSC1=N/C(=C\c2ccc(C)cc2)C(=O)N1CN1CCCCC1
TGI (NCI-H522 lung): > 100 µM | TGI (U251 CNS): > 100 µM | TGI (HOP-92 NSCLC): > 100 µM | TGI (TK-10 renal): > 100 µM | TGI (A498 renal): > 100 µM | TGI (SW-620 colon): > 100 µM | TGI (MDA-MB-435): > 100 µM | TGI (SF-268 CNS): > 100 µM | TGI (SK-MEL-28 melanoma): > 100 µM | TGI (SK-MEL-2 melanoma): > 100 µM | TGI (LOX IMVI melanoma): > 100 µM | TGI (UACC-62 melanoma): > 100 µM | TGI (A549 NSCLC): > 100 µM | TGI (IGROV1 ovarian): > 100 µM | TGI (HCT-116 colon): > 100 µM | TGI (NCI-H226 lung): > 100 µM | TGI (SN12C renal): > 100 µM | TGI (MOLT-4 leukemia): > 100 µM | TGI (HCT-15 colon): > 100 µM | TGI (SR leukemia): > 100 µM | TGI (OVCAR-8 ovarian): > 100 µM | TGI (SNB-75 CNS): > 100 µM | TGI (SK-MEL-5 melanoma): > 100 µM | TGI (PC-3 prostate): > 100 µM | TGI (K-562 leukemia): > 100 µM | TGI (DU-145 prostate): > 100 µM | TGI (MDA-MB-231 breast): > 100 µM | TGI (M14 melanoma): > 100 µM | TGI (MCF7 breast): > 100 µM | TGI (ACHN renal): > 100 µM | TGI (EKVX NSCLC): > 100 µM | TGI (OVCAR-5 ovarian): > 100 µM | TGI (MDA-N): > 100 µM | TGI (COLO 205 colon): > 100 µM | TGI (SF-295 CNS): > 100 µM | TGI (HT29 colon): > 100 µM | TGI (HOP-62 NSCLC): > 100 µM | TGI (786-0 renal): > 100 µM | TGI (HS 578T breast): > 100 µM | TGI (NCI/ADR-RES ovarian): > 100 µM | TGI (OVCAR-3 ovarian): > 100 µM | TGI (OVCAR-4 ovarian): > 100 µM | TGI (KM12 colon): > 100 µM | TGI (NCI-H23 lung): > 100 µM | TGI (RPMI-8226 leukemia): > 100 µM | TGI (UO-31 renal): > 100 µM | TGI (MALME-3M melanoma): > 100 µM | TGI (SNB-19 CNS): > 100 µM | TGI (SK-OV-3 ovarian): > 100 µM

CC1(C)CC(=O)C(C(CC(c2ccccc2)c2cc3c(cc2O)OCO3)C2=C(O)CC(C)(C)CC2=O)=C(O)C1 (stereo unspecified)
TGI (U251 CNS): > 10 µM | TGI (HOP-92 NSCLC): > 10 µM | TGI (TK-10 renal): > 10 µM | TGI (A498 renal): > 10 µM | TGI (SW-620 colon): > 10 µM | TGI (MDA-MB-435): > 10 µM | TGI (SF-268 CNS): > 10 µM | TGI (A549 NSCLC): > 10 µM | TGI (CAKI-1 renal): > 10 µM | TGI (IGROV1 ovarian): > 10 µM | TGI (HCT-116 colon): > 10 µM | TGI (NCI-H226 lung): > 10 µM | TGI (SN12C renal): > 10 µM | TGI (HCT-15 colon): > 10 µM | TGI (OVCAR-8 ovarian): > 10 µM | TGI (SNB-75 CNS): > 10 µM | TGI (SK-MEL-5 melanoma): > 10 µM | TGI (PC-3 prostate): > 10 µM | TGI (DU-145 prostate): > 10 µM | TGI (MDA-MB-231 breast): > 10 µM | TGI (SF-539 CNS): > 10 µM | TGI (M14 melanoma): > 10 µM | TGI (ACHN renal): > 10 µM | TGI (EKVX NSCLC): > 10 µM | TGI (OVCAR-5 ovarian): > 10 µM | TGI (MDA-N): > 10 µM | TGI (COLO 205 colon): > 10 µM | TGI (SF-295 CNS): > 10 µM | TGI (RXF 393 renal): > 10 µM | TGI (HT29 colon): > 10 µM | TGI (NCI/ADR-RES ovarian): > 10 µM | TGI (OVCAR-3 ovarian): > 10 µM | TGI (OVCAR-4 ovarian): > 10 µM | TGI (KM12 colon): > 10 µM | TGI (NCI-H23 lung): > 10 µM | TGI (UO-31 renal): > 10 µM | TGI (SNB-19 CNS): > 10 µM
